# US6541503B2, “Substituted oxindole derivatives as protein tyrosine kinase and as protein serine/threonine kinase inhibitors” (SmithKline Beecham Corporation, priority 1997, dated 2003)
# System: HDF normal diploid fibroblast cells
# Assay: MTT assay, HDF
# Format: cell-based, human
# Details: Homo sapiens, Fibroblast, 72 h, read-out: MTT HDF IC50
# Protocol: Compounds are tested for their ability to inhibit cell proliferation and cell viability. The metabolic conversion of 3-(4,5-dimethylthiazol-2-yl)-2,5-diphenyltetrazolium bromide (MTT, Sigma #M2128) to a reduced form is a commonly used measure of cellular viability. Following is the procedure:
# Cells are maintained in 75 cm^2 tissue culture flasks until ready for use. The cells are grown and plated for the assay in Dulbecco's modified Eagle's media (DMEM) containing 10% fetal bovine serum. For example, the following cell lines can be used: a) human foreskin fibroblasts (HFF); b) HT29 (human colon carcinoma cell line); c)MDA-MB-468 (human breast carcinoma cell line); d) RKO (human colon adenocarcinoma cell line); e) SW620 (human colon carcinoma cell line); f) A549 (human lung carcinoma cell line); and g) MIA PACA (human pancreatic carcinoma cell line). Cells are maintained at 37° C. in 10% CO2, 90% humidified air. Cells are plated in 96-well tissue culture plates at the densities listed below. […]
# Cells are returned to incubator and allowed to proliferate in the presence of compound for 72 h before addition of MTT. […] Quantitation of metabolic reduction of MTT in each plate is performed by reading optical density at 570 nm wavelength on a Molecular Devices UVmax microplate reader. Growth inhibition curves and 50% inhibitory concentrations are determined using Microsoft Excel. […]
compound,measurement,value
"O=C1Nc2ccc3ncsc3c2C1=CNc1ccc(S(=O)(=O)Nc2ccccn2)cc1 [Example 72, 4-[(7-Oxo-6,7-dihydro-1-thia-3,6-diaza-as-indacen-8-ylidenemethyl)-amino]-N-pyridin-2-yl-benzenesulfonamide]",IC50,> 5 µM
